Measurements: patent US7510701B2, “Aerosol-based insecticide compositions and methods of using the same” (Waterbury Companies, Inc., priority 2001, dated 2009)

Tested on: termites
Assay: Repellency to termites (termites moving through the treated area)
Type: in vivo
Conditions: termites do not detect the active ingredient in the treated area and readily move through it, picking up a lethal dose
Description: […], and in particular deltamethrin, an α-cyano-pyrethroid, are the preferred active ingredients of the insecticide formulation of this invention and provides the formulation with its insecticidal activity. The International Union of Pure and Applied Chemistry name for Deltamethrin is (S)-α-cyano-3-phenoxybenzyl (1R)-cis-3-(2,2-dibromovinyl)-2,2-dimethylcyclopropane-carboxylate. Deltamethrin is produced by AgrEvo Environmental Health of 95 Chestnut Ridge Road, Montvale, N.J., 07645. The concentration of deltamethrin in the insecticide formulation may range from 0.01 to 2% by weight of the insecticide without propellant, but is preferably from 0.01 to 0.5% by weight of the insecticide without propellant and most preferably from 0.10 to 0.30% by weight of the insecticide without the propellant.

`CC1(C)[C@H](C(=O)O[C@H](C#N)c2cccc(Oc3ccccc3)c2)[C@@H]1C=C(Br)Br` [deltamethrin, (S)-α-cyano-3-phenoxybenzyl (1R)-cis-3-(2,2-dibromovinyl)-2,2-dimethylcyclopropane-carboxylate] was tested, and the Repellency to termites was “non-repellant to termites”.
